Values of other authors, collected in article PMC7510478, “The effect of size, charge, and peptide ligand length on kidney targeting by small, organic nanoparticles” (Bioengineering & Translational Medicine, 2020).

Assays:
ADPKD patients = tested on: ADPKD patients
Excerpt: Chronic kidney disease (CKD) affects 600 million people globally and is characterized by gradual kidney function decline. ^1 A common form of CKD is autosomal dominant polycystic kidney disease (ADPKD), which affects over 12 million people worldwide and is characterized by renal cyst formation that can result in the need for dialysis or kidney transplant. ^2 , ^3 , ^4 , ^5 Currently, there is no cure for ADPKD and tolvaptan is the only FDA approved treatment for ADPKD. ^6 Despite enthusiasm, tolvaptan has been reported to cause several side effects including polyuria, thirst, nocturia, and dru ...

megalin = tested on: megalin; set-up: method as in PMID 27617593, PMID 19202329, PMID 11994745, PMID 9574443
[1] = study of 961 ADPKD patients undergoing tolvaptan treatment

Compound | Patients affected by polyuria (ADPKD patients; ADPKD patients on tolvaptan) | Adverse event rate, nocturia (ADPKD patients; [1]) | Adverse event rate, thirst (ADPKD patients; [1]) | Uptake in megalin‐deficient mice (megalin)
Cc1ccccc1C(=O)Nc1ccc(C(=O)N2CCCC(O)c3cc(Cl)ccc32)c(C)c1 (stereo not shown) [tolvaptan] | 38% | ~29% | approximately 55% | –
[Lys–Lys–Glu–Glu–Glu]3–Lys [(KKEEE)3K] | – | – | – | significantly reduced uptake
